Experimental data taken from PMC9249544, “Identification of Flavonoid C-Glycosides as Promising Antidiabetics Targeting Protein Tyrosine Phosphatase 1B” (Journal of Diabetes Research, 2022).

Target: T1, Protein tyrosine phosphatase 1B (PTP1B) (Homo sapiens, UniProt P18031)
T1 construct: gene PTPN1
T1 sequence (P18031 1-435): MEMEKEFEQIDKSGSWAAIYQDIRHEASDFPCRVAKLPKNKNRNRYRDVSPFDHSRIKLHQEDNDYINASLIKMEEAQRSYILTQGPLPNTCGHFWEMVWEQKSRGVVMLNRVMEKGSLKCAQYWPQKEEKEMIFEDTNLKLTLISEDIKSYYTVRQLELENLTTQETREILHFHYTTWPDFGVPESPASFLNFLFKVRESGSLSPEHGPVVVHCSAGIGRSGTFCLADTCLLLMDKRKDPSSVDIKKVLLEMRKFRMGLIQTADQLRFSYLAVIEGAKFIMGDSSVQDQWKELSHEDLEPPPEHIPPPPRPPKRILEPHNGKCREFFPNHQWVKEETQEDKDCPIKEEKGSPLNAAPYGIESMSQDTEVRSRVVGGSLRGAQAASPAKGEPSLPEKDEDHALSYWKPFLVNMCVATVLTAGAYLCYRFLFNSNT
Test: p-NPP hydrolysis assay with human recombinant PTP1B ([…] nm); Lineweaver-Burk kinetics
Format: biochemical

Compound: O=c1cc(-c2ccc(O)c(O)c2)oc2c([C@@H]3O[C@H](CO)[C@@H](O)[C@H](O)[C@H]3O)c(O)cc(O)c12 [orientin]
- IC50: 401 µM
